The text below walks through data of US20210267989A1, “Novel Compounds for the Treatment, Alleviation or Prevention of Disorders Associated with Tau Aggregates” (AC Immune SA, priority 2018, published 2021).

For the experiment, the target named is T1, Tau K18 fragment aggregates (amino acids 244 to 372 of human Tau441) (Homo sapiens, UniProt P10636).
T1 construct: encompassing amino acids 244 to 372 of the longest isoform (2N4R) of human Tau441; host or cells: bacteria
Put plainly: Tau K18 disaggregation assay by ThT. It counts as biochemical. Conditions: ThT fluorescence; 2 μM K18 aggregates, 30 minutes at RT. As to the method: Tau K18 Disaggregation Assay by ThT
The Tau K18 fragment, encompassing amino acids 244 to 372 of the longest isoform (2N4R) of human Tau441, was expressed in bacteria and purified or bought from SignalChem. For the K18 disaggregation assay by ThT, 35 μM of recombinant K18 in PBS were aggregated for 24 hours at 37° C. in presence of 50 μM of heparin (Sigma-Aldrich) and 10 mM of DTT (Sigma-Aldrich) under shaking at 750 RPM. Compounds were dissolved in anhydrous dimethyl sulfoxide (DMSO, Sigma-Aldrich) to reach a concentration of 10 mM. K18 aggregates and serial dilutions of compounds were mixed together in PBS (volume 50 μL) to a final concentration of 2 μM of K18 aggregates and from 160 to 0.04 μM of compounds. The mixture was incubated for 30 minutes at room temperature (RT), then 40 μL of this mixture were transferred into a black 384-well plate assay (Perkin-Elmer) and mixed with 10 μL of 100 μM ThT in 250 mM glycine (both from Sigma-Aldrich) in PBS. Fluorescence (relative fluorescence units; RFU) was measured in monoplicate or duplicate on a Tecan reader (excitation: 440 nm; emission: 485 nm). Percentage of K18 disaggregation was then calculated and half maximal effective concentration (E050) was determined using GraphPad Prism version 5 (GraphPad Software) assuming a one-binding site fitting model.

T1 sequence (P10636 561-689): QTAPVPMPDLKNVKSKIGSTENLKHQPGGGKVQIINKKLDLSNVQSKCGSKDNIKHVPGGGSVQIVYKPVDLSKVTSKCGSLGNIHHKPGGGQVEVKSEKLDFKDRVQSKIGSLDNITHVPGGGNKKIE

As usually defined, the EC50 is the concentration giving half of the maximal effect. Low readings indicate a more potent agent, high ones a less potent agent. On to `COc1ccc2c(c1)c1c(n2C)CN(c2ccc3nc(N4CCOCC4)oc3c2)CC1` [Example 20], for which the EC50 was less than 10 µM.

Turning to `Fc1ccc2[nH]c3c(c2c1)CCN(c1ccc2sc(N4CCOCC4)nc2c1)C3` [Example 22], the EC50 is less than 10 µM. Turning to `Fc1ccc2[nH]c3c(c2c1)CCN(c1ccc2nc(N4CCOCC4)sc2c1)C3` [Example 23], the EC50 was less than 10 µM.

The compound `Fc1ccc2[nH]c3c(c2c1)CCN(c1ccc2nc(N4CCOCC4)oc2c1)C3` [Example 24] displayed an EC50 of less than 10 µM. Then `Fc1ccc2[nH]c3c(c2c1)CCN(c1ccc2oc(N4CCOCC4)nc2c1)C3` [Example 25], with less than 10 µM.

As for `CN(C)c1nc2ccc(N3CCc4c([nH]c5ccc(F)cc45)C3)cc2s1` [Example 26], the EC50 was less than 10 µM. `CN(C)c1nc2ccc(N3CCc4c([nH]c5ccc(F)cc45)C3)cc2o1` [Example 27] showed an EC50 of less than 10 µM. Compound `CN(C)c1nc2cc(N3CCc4c([nH]c5ccc(F)cc45)C3)ccc2o1` [Example 28] returned an EC50 of less than 10 µM. `CN(C)c1nc2ccc(N3CCc4c(n(C)c5ccc(F)cc45)C3)cc2s1` [Example 29] had an EC50 of less than 10 µM. Turning to `COc1ccc2[nH]c3c(c2c1)CCN(c1ccc2sc(N4CCOCC4)nc2c1)C3` [Example 30], the EC50 was less than 10 µM.

Take `COc1ccc2[nH]c3c(c2c1)CCN(c1ccc2nc(N4CCOCC4)sc2c1)C3` [Example 31]: the EC50 is less than 10 µM.

Compound `COc1ccc2[nH]c3c(c2c1)CCN(c1ccc2nc(N4CCOCC4)oc2c1)C3` [Example 32] showed an EC50 of less than 10 µM. `COc1ccc2[nH]c3c(c2c1)CCN(c1ccc2oc(N4CCOCC4)nc2c1)C3` [Example 33] displayed an EC50 of 10 to 25 µM. For `COc1ccc2[nH]c3c(c2c1)CCN(c1ccc2sc(N(C)C)nc2c1)C3` [Example 34], the EC50 was less than 10 µM. Turning to `COc1ccc2[nH]c3c(c2c1)CCN(c1ccc2nc(N(C)C)sc2c1)C3` [Example 35], the EC50 is less than 10 µM. In the case of `COc1ccc2[nH]c3c(c2c1)CCN(c1ccc2nc(N(C)C)oc2c1)C3` [Example 36], the EC50 is less than 10 µM. `c1ccc2c3c([nH]c2c1)CN(c1ccc2sc(N4CCOCC4)nc2c1)CC3` [Example 37]: the EC50 was in the range of 10 to 25 µM. As for `COc1ccc2[nH]c3c(c2c1)CCN(c1ccc2oc(N(C)C)nc2c1)C3` [Example 39], the EC50 is less than 10 µM. `Fc1ccc2[nH]c3c(c2c1)CCN(c1ccc(N2CCOCC2)nc1)C3` [Example 40] showed an EC50 of less than 10 µM. Then `Fc1ccc2[nH]c3c(c2c1)CCN(c1ccc(N2CCOCC2)cn1)C3` [Example 41], with less than 10 µM. Then `CN(C)c1nc2cc(N3CCc4c([nH]c5ccc(F)cc45)C3)ccc2s1` [Example 42], with less than 10 µM.

For `Fc1ccc2[nH]c3c(c2c1)CCN(c1cnc(N2CCOCC2)c(F)c1)C3` [Example 48], the EC50 was less than 10 µM. The compound `Fc1ccc2[nH]c3c(c2c1)CCN(c1cc2sc(N4CCOCC4)nc2cn1)C3` [Example 49] yielded an EC50 of less than 10 µM.

`Fc1ccc2[nH]c3c(c2c1)CCN(c1cncc(N2CCOCC2)c1)C3` [Example 50] displayed an EC50 of 10 to 25 µM. `Fc1ccc2c3c([nH]c2c1)CN(c1cnc(N2CCOCC2)c(F)c1)CC3` [Example 51] came in with an EC50 of 10 to 25 µM. `Fc1ccc2c3c([nH]c2c1)CN(c1ccc(N2CCOCC2)c(F)c1)CC3` [Example 52] yielded an EC50 of less than 10 µM.

In turn, `Fc1ccc2[nH]c3c(c2c1)CCN(c1cnc2nc(N4CCOCC4)sc2c1)C3` [Example 53] came in with a 50% effective concentration (EC50) of less than 10 µM. Consider `Fc1ccc2[nH]c3c(c2c1)CCN(c1ccc2nc(N4CCOCC4)sc2n1)C3` [Example 54], for which the EC50 is less than 10 µM. `Fc1ccc2[nH]c3c(c2c1)CCN(c1ccc(N2CCOCC2)cc1)C3` [Example 55] yielded an EC50 of less than 10 µM. The compound `Fc1ccc2[nH]c3c(c2c1)CCN(c1ccc(N2CCOCC2)cc1F)C3` [Example 56] registered an EC50 of less than 10 µM.

`Fc1ccc2c3c([nH]c2c1)CN(c1ccc(N2CCOCC2)cc1)CC3` [Example 57] displayed an EC50 of less than 10 µM. Compound `Fc1cc(N2CCc3c([nH]c4ccccc34)C2)ccc1N1CCOCC1` [Example 58] registered an EC50 of less than 10 µM. For `c1ccc2c3c([nH]c2c1)CN(c1ccc(N2CCOCC2)cc1)CC3` [Example 59], the EC50 was less than 10 µM.

Regarding `CN1CCN(c2ccc(N3CCc4c([nH]c5cc(F)ccc45)C3)cc2)CC1` [Example 62], the EC50 fell in the range of 10 to 25 µM. Then `Cn1c2c(c3ccccc31)CCN(c1nc3ccc(N4CCOCC4)cc3o1)C2` [Example 67], with less than 10 µM. As for `c1ccc2c3c([nH]c2c1)CN(c1ccc(N2CCOCC2)nn1)CC3` [Example 68], the EC50 is less than 10 µM. On to `c1ccc2c3c([nH]c2c1)CN(c1ccc(N2C4COCC2C4)nc1)CC3` [Example 70], for which the EC50 was less than 10 µM. With `C[C@@H]1CN(c2ccc(N3CCc4c([nH]c5ccccc45)C3)cn2)C[C@H](C)O1` [Example 76], the EC50 was less than 10 µM.

In turn, `c1ccc2c3c([nH]c2c1)CN(c1ccc(N2CCOC4(CCC4)C2)nc1)CC3` [Example 77] registered an EC50 of less than 10 µM. `C[C@@H]1COCCN1c1ccc(N2CCc3c([nH]c4ccccc34)C2)cn1` [Example 78] registered an EC50 of less than 10 µM. In turn, `c1ccc2c3c([nH]c2c1)CN(c1ccc(N2C[C@@H]4C[C@H]2CO4)nc1)CC3` [Example 86] yielded an EC50 of less than 10 µM. Then `Fc1cccc2[nH]c3c(c12)CCN(c1ccc(N2CCOCC2)nc1)C3` [Example 87], with less than 10 µM; and `Fc1cccc2[nH]c3c(c12)CCN(c1ccc(N2CCOCC2)cn1)C3` [Example 88], with less than 10 µM.

Compound `Fc1cccc2[nH]c3c(c12)CCN(c1ccc2oc(N4CCOCC4)nc2c1)C3` [Example 89] yielded an EC50 of less than 10 µM. Compound `Cn1c2c(c3c(F)cccc31)CCN(c1ccc3oc(N4CCOCC4)nc3c1)C2` [Example 90] registered an EC50 of less than 10 µM. Regarding `Cn1c2c(c3cccc(F)c31)CCN(c1ccc3oc(N4CCOCC4)nc3c1)C2` [Example 91], the EC50 was less than 10 µM. For the compound `Fc1cccc2c3c([nH]c12)CN(c1ccc(N2CCOCC2)nc1)CC3` [Example 92], the EC50 was less than 10 µM.

For `Fc1cccc2c3c([nH]c12)CN(c1ccc2oc(N4CCOCC4)nc2c1)CC3` [Example 93], the EC50 is less than 10 µM.

With `CN1CCN(c2cnc(N3CCc4c(n(C)c5ccccc45)C3)cn2)CC1` [Example 94], the EC50 is 10 to 25 µM. Compound `CN1CCN(c2ccc(N3CCc4c(n(C)c5ccccc45)C3)cn2)CC1` [Example 95] came in with an EC50 of 25 to 50 µM. `Cn1c2c(c3ccccc31)CCN(c1ccc(N3CCOCC3)nn1)C2` [Example 96] registered an EC50 of less than 10 µM. `CN1CCN(c2nc3cc(N4CCc5c(n(C)c6ccccc56)C4)ccc3o2)CC1` [Example 97]: the EC50 is 10 to 25 µM.

In turn, `CN1CCN(c2nc3cc(N4CCc5c([nH]c6ccccc56)C4)ccc3o2)CC1` [Example 98] displayed an EC50 of 25 to 50 µM. `c1ccc2c3c([nH]c2c1)CN(c1ccc2oc(N4CCOCC4)nc2c1)CC3` [Example 99] displayed an EC50 of less than 10 µM.

The compound `Cn1c2c(c3ccccc31)CCN(c1ccc3oc(N4CCOCC4)nc3c1)C2` [Example 100] showed an EC50 of less than 10 µM. Then `Cn1c2c(c3ccccc31)CCN(c1nc3cc(N4CCOCC4)ccc3o1)C2` [Example 101], with less than 10 µM. `c1ccc2c3c([nH]c2c1)CN(c1nc2ccc(N4CCOCC4)cc2o1)CC3` [Example 102] returned an EC50 of less than 10 µM.

Take `Fc1ccc2c3c([nH]c2c1)CN(c1ccc2oc(N4CCOCC4)nc2c1)CC3` [Example 103]: the EC50 was less than 10 µM.

The compound `Cn1c2c(c3ccccc31)CCN(c1ccc(C#N)nc1)C2` [Example 112] gave an EC50 of less than 10 µM. `N#Cc1ccc(N2CCc3c([nH]c4ccccc34)C2)cn1` [Example 113]: the EC50 is less than 10 µM. The same measure for `COC1CCN(c2ccc(N3CCc4c([nH]c5ccccc45)C3)nn2)CC1` [Example 117]: less than 10 µM.

As to `C[C@H]1CN(c2ccc(N3CCc4c([nH]c5ccccc45)C3)nn2)CCO1` [Example 118], the EC50 was less than 10 µM. Then `C[C@@H]1CN(c2ccc(N3CCc4c([nH]c5ccccc45)C3)nn2)CCO1` [Example 119], with less than 10 µM; and `C[C@@H]1CN(c2ccc(N3CCc4c([nH]c5ccccc45)C3)nn2)C[C@H](C)O1` [Example 120], with less than 10 µM; and `Fc1ccc2[nH]c3c(c2c1)CCN(c1ccc2ccc(N4CCOCC4)nc2c1)C3` [Example 121], with 10 to 25 µM. In turn, `Fc1ccc2[nH]c3c(c2c1)CCN(c1ccc2nc(N4CCOCC4)ccc2c1)C3` [Example 122] registered an EC50 of less than 10 µM.
